According to patent publication US12391737B2, “Soluble NPY2 receptor agonists” (Boehringer Ingelheim International GmbH, priority 2020, dated 2025):
*1 amine or outer side, *2 acyl side, *3 side chain or, on linkers, in order; H or OH if unused. Where a SMILES comes first, the peptide text is derived from it. Side-chain parts run from the residue outwards. The star is where a group is joined. C18 diacid = O=C(O)CCCCCCCCCCCCCCCCC(=O)*; γGlu = O=C(O)[C@H](CCC(=O)[*:2])N[*:1]; Isovaleryl = CC(C)CC(=O)*; Ahx = NCCCCCC(=O)O

What was measured:
[1] = target: T1, Human Neuropeptide Y2 Receptor (Homo sapiens, UniProt P49146); assay: Radioligand binding competition assay (RLB); conditions: Table 3, 125I-PYY(1-36) competition; read-out: Ki
T1 construct: purchased CHEMICON HTS066M
T1 sequence (P49146 1-381): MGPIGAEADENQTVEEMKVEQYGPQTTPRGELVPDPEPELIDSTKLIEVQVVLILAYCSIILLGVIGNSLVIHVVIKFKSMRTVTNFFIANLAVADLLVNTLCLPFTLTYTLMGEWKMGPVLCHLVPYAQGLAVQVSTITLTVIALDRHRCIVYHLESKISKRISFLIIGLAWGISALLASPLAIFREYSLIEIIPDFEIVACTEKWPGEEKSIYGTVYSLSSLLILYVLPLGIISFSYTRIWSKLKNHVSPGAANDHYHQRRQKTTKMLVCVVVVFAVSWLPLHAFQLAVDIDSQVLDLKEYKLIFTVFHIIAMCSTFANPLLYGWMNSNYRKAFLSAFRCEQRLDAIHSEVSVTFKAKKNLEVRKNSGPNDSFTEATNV
Method: The filtration RLB assay was carried out in 96-well plates in a final volume of 100 μl per well. Freeze-dried test peptides were dissolved in 100% dimethyl sulfoxide (DMSO) to stock solutions of 1 mM and serial dilutions were performed in assay buffer (50 mM HEPES, 5 mM MgCl2, 1 mM CaCl2, pH 7.4) containing 0.2% ovalbumin. […] Next, 80 μL membranes (HTS066M, ChemiSCREEN™ Human Neuropeptide Y2 Receptor Membrane Preparation, CHEMICON) were added to each well to give a final protein concentration of 0.5 μg/well. The plates were sealed and incubated at room temperature for 2 hours in a plate shaker set at 400 rpm. The incubation was stopped by vacuum filtration onto 0.5% polyethylene amine (PE) presoaked GF/C filters using a 96-well FilterMate™ harvester (Perkin Elmer) followed by four washes with 300 μl/well ice-cold wash buffer (50 mM HEPES, 500 mM NaCl, pH7.4). Filter plates were then dried for 60 min at room temperature and the bottom of the plates was sealed with backing tape UniFilter-96. Finally, 50 μl/well scintillation counter cocktail (Microscint20, Packard) was added and the radioactivity was counted in the Packard TopCount NXT scintillation counter. IC50 values (the half maximal inhibitory concentration of the agonist) were calculated by nonlinear regression analysis of sigmoidal dose-response curves.

Solubility determination = conditions: for Sol6: pH 6; for Sol7: pH 7
Outline: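 Shake-flask style: 10 mg/ml peptide (TFA salt), 0.1 M sodium diphosphate pH 6.4/7.0, 600 rpm, 2 h, RT; filter; dilute 1 mg/ml in 50% MeCN; RP-UPLC, 0–100% B over 2 min, 50 °C. Solubility = sample/control area ratio. Final pH recorded.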

CC(C)CC(=O)N[C@@H](C)C(=O)N1CCC[C@H]1C(=O)N[C@@H](CCC(=O)O)C(=O)N[C@@H](CCCCNC(=O)CCCCCNC(=O)CC[C@H](NC(=O)CCCCCCCCCCCCCCCCC(=O)O)C(=O)O)C(=O)N1CCC[C@H]1C(=O)N[C@@H](CCC(=O)O)C(=O)N[C@@H](CCC(=O)O)C(=O)N[C@@H](CC(=O)O)C(=O)N1CCC[C@H]1C(=O)N[C@H](C(=O)N1CCC[C@H]1C(=O)N[C@@H](CCC(=O)O)C(=O)N[C@@H](CCC(=O)O)C(=O)N[C@@H](CC(C)C)C(=O)N[C@@H](CCC(N)=O)C(=O)N[C@@H](CCCNC(=N)N)C(=O)N[C@@H](Cc1ccc(O)cc1)C(=O)N[C@@H](Cc1ccc(O)cc1)C(=O)N[C@H](C(=O)N[C@@H](CO)C(=O)N[C@@H](CC(C)C)C(=O)N[C@@H](CCCNC(=N)N)C(=O)N[C@@H](Cc1c[nH]cn1)C(=O)N[C@@H](Cc1ccc(O)cc1)C(=O)N[C@@H](Cc1ccc(O)cc1)C(=O)N[C@@H](CC(N)=O)C(=O)N[C@@H](Cc1c[nH]c2ccccc12)C(=O)N[C@@H](CC(C)C)C(=O)N[C@H](C(=O)N[C@@H](CCCNC(=N)N)C(=O)N[C@@H](CCC(N)=O)C(=O)N[C@@H](CCCNC(=N)N)C(=O)N[C@@H](Cc1ccc(O)cc1)C(N)=O)[C@@H](C)O)C(C)C)[C@@H](C)O [Compound 22, N{alpha-4}-(3-methylbutanoyl)-N{epsilon-7}-(6-[(4S)-4-carboxy-4-(17-carboxyheptadecanamido)butanamido]hexanoyl)[4A,7K,9E,12P,13T,18Q,22V,28Y,30W,31L]-hPYY(4-36)]
Ki [1]: 4.98 nM | Sol6 (Solubility determination): 9.7 mg/mL | Sol7 (Solubility determination): 9.8 mg/mL

CC(C)CC(=O)N[C@@H](C)C(=O)N1CCC[C@H]1C(=O)N[C@@H](CCC(=O)O)C(=O)N[C@@H](CCCCNC(=O)CCCCCNC(=O)CC[C@H](NC(=O)CCCCCCCCCCCCCCCCC(=O)O)C(=O)O)C(=O)N1CCC[C@H]1C(=O)N[C@@H](CCC(=O)O)C(=O)N[C@@H](CCC(=O)O)C(=O)N[C@@H](CC(=O)O)C(=O)N[C@@H](CO)C(=O)N[C@@H](CO)C(=O)N1CCC[C@H]1C(=O)N[C@@H](CCC(=O)O)C(=O)N[C@@H](CCC(=O)O)C(=O)N[C@@H](CC(C)C)C(=O)N[C@@H](CCC(N)=O)C(=O)N[C@@H](CCCNC(=N)N)C(=O)N[C@@H](Cc1ccc(O)cc1)C(=O)N[C@@H](Cc1ccc(O)cc1)C(=O)N[C@H](C(=O)N[C@@H](C)C(=O)N[C@@H](CC(C)C)C(=O)N[C@@H](CCCNC(=N)N)C(=O)N[C@@H](Cc1c[nH]cn1)C(=O)N[C@@H](Cc1ccc(O)cc1)C(=O)N[C@@H](Cc1ccc(O)cc1)C(=O)N[C@@H](CC(N)=O)C(=O)N[C@@H](Cc1c[nH]c2ccccc12)C(=O)N[C@@H](CC(C)C)C(=O)N[C@H](C(=O)N[C@@H](CCCNC(=N)N)C(=O)N[C@@H](CCC(N)=O)C(=O)N[C@@H](CCCNC(=N)N)C(=O)N[C@@H](Cc1ccc(O)cc1)C(N)=O)[C@@H](C)O)C(C)C [Compound 24, N{alpha-4}-(3-methylbutanoyl)-N{epsilon-7}-(6-[(4S)-4-carboxy-4-(17-carboxyheptadecanamido)butanamido]hexanoyl)[4A,7K,9E,12S,18Q,22V,23A,28Y,30W,31L]-hPYY(4-36)]
Ki [1]: 3.39 nM | Sol6 (Solubility determination): 9.8 mg/mL | Sol7 (Solubility determination): 10.0 mg/mL

CC[C@H](C)[C@H](NC(=O)[C@H](Cc1ccc(O)cc1)NC(=O)[C@H](Cc1ccc(O)cc1)NC(=O)[C@H](CCCNC(=N)N)NC(=O)[C@H](CCC(N)=O)NC(=O)[C@H](CC(C)C)NC(=O)[C@H](CCC(=O)O)NC(=O)[C@H](CCC(=O)O)NC(=O)[C@@H]1CCCN1C(=O)[C@@H](NC(=O)[C@H](C)NC(=O)[C@H](CC(=O)O)NC(=O)[C@H](C)NC(=O)[C@H](CCC(=O)O)NC(=O)[C@@H]1CCCN1C(=O)[C@H](CCCCNC(=O)CCCCCNC(=O)CC[C@H](NC(=O)CCCCCCCCCCCCCCCCC(=O)O)C(=O)O)NC(=O)[C@H](CCC(=O)O)NC(=O)[C@@H]1CCCN1C(=O)[C@H](C)NC(=O)CC(C)C)[C@@H](C)O)C(=O)N[C@@H](CO)C(=O)N[C@@H](CC(C)C)C(=O)N[C@@H](CCCNC(=N)N)C(=O)N[C@@H](Cc1c[nH]cn1)C(=O)N[C@@H](Cc1ccc(O)cc1)C(=O)N[C@@H](Cc1ccc(O)cc1)C(=O)N[C@@H](CC(N)=O)C(=O)N[C@@H](Cc1c[nH]c2ccccc12)C(=O)N[C@@H](CC(C)C)C(=O)N[C@H](C(=O)N[C@@H](CCCNC(=N)N)C(=O)N[C@@H](CCC(N)=O)C(=O)N[C@@H](CCCNC(=N)N)C(=O)N[C@@H](Cc1ccc(O)cc1)C(N)=O)[C@@H](C)O [Compound 25, N{alpha-4}-(3-methylbutanoyl)-N{epsilon-7}-(6-[(4S)-4-carboxy-4-(17-carboxyheptadecanamido)butanamido]hexanoyl)[4A,7K,9E,10A,13T,18Q,22I,28Y,30W,31L]-hPYY(4-36)] (Isovaleryl-APEK([Ahx-γGlu-C18 diacid])PEADATPEELQRYYISLRHYYNWLTRQRY-NH2)
Ki [1]: 1.55 nM | Sol6 (Solubility determination): 9.3 mg/mL | Sol7 (Solubility determination): 9.3 mg/mL

CC(C)CC(=O)N[C@@H](C)C(=O)N1CCC[C@H]1C(=O)N[C@@H](CCC(=O)O)C(=O)N[C@@H](CCCCNC(=O)CCCCCNC(=O)CC[C@H](NC(=O)CCCCCCCCCCCCCCCCC(=O)O)C(=O)O)C(=O)N1CCC[C@H]1C(=O)N[C@@H](CCC(=O)O)C(=O)N[C@@H](CCC(=O)O)C(=O)N[C@@H](CC(=O)O)C(=O)N[C@@H](C)C(=O)N[C@@H](CCC(=O)O)C(=O)N1CCC[C@H]1C(=O)N[C@@H](CCC(=O)O)C(=O)N[C@@H](CCC(=O)O)C(=O)N[C@@H](CO)C(=O)N[C@@H](CCC(N)=O)C(=O)N[C@@H](CCCNC(=N)N)C(=O)N[C@@H](Cc1ccc(O)cc1)C(=O)N[C@@H](Cc1ccc(O)cc1)C(=O)N[C@H](C(=O)N[C@@H](CO)C(=O)N[C@@H](CC(C)C)C(=O)N[C@@H](CCCNC(=N)N)C(=O)N[C@@H](Cc1c[nH]cn1)C(=O)N[C@@H](Cc1ccc(O)cc1)C(=O)N[C@@H](Cc1ccc(O)cc1)C(=O)N[C@@H](CC(N)=O)C(=O)N[C@@H](Cc1c[nH]c2ccccc12)C(=O)N[C@@H](CC(C)C)C(=O)N[C@H](C(=O)N[C@@H](CCCNC(=N)N)C(=O)N[C@@H](CCC(N)=O)C(=O)N[C@@H](CCCNC(=N)N)C(=O)N[C@@H](Cc1ccc(O)cc1)C(N)=O)[C@@H](C)O)C(C)C [Compound 27, N{alpha-4}-(3-methylbutanoyl)-N{epsilon-7}-(6-[(4S)-4-carboxy-4-(17-carboxyheptadecanamido)butanamido]hexanoyl)[4A,7K,9E,13E,17S,18Q,22V,28Y,30W,31L]-hPYY(4-36)]
Ki [1]: 10.5 nM | Sol6 (Solubility determination): 9.1 mg/mL | Sol7 (Solubility determination): 9.4 mg/mL

CC[C@H](C)[C@H](NC(=O)[C@H](CCC(=O)O)NC(=O)[C@H](CCC(=O)O)NC(=O)[C@@H]1CCCN1C(=O)[C@@H](NC(=O)[C@H](C)NC(=O)[C@H](CC(=O)O)NC(=O)[C@H](CCC(=O)O)NC(=O)[C@@H]1CCCN1C(=O)[C@@H]1CCCN1C(=O)[C@H](CCCCNC(=O)CCCCCNC(=O)CC[C@H](NC(=O)CCCCCCCCCCCCCCCCC(=O)O)C(=O)O)NC(=O)[C@H](CCC(=O)O)NC(=O)[C@@H]1CCCN1C(=O)[C@H](C)NC(=O)CC(C)C)[C@@H](C)O)C(=O)N[C@@H](CCC(N)=O)C(=O)N[C@@H](CCCNC(=N)N)C(=O)N[C@@H](Cc1ccc(O)cc1)C(=O)N[C@@H](Cc1ccc(O)cc1)C(=O)N[C@H](C(=O)N[C@@H](CO)C(=O)N[C@@H](CC(C)C)C(=O)N[C@@H](CCCNC(=N)N)C(=O)N[C@@H](Cc1c[nH]cn1)C(=O)N[C@@H](Cc1ccc(O)cc1)C(=O)N[C@@H](Cc1ccc(O)cc1)C(=O)N[C@@H](CC(N)=O)C(=O)N[C@@H](Cc1c[nH]c2ccccc12)C(=O)N[C@@H](CC(C)C)C(=O)N[C@H](C(=O)N[C@@H](CCCNC(=N)N)C(=O)N[C@@H](CCC(N)=O)C(=O)N[C@@H](CCCNC(=N)N)C(=O)N[C@@H](Cc1ccc(O)cc1)C(N)=O)[C@@H](C)O)C(C)C [Compound 28, N{alpha-4}-(3-methylbutanoyl)-N{epsilon-7}-(6-[(4S)-4-carboxy-4-(17-carboxyheptadecanamido)butanamido]hexanoyl)[4A,7K,9P,13T,17I,18Q,22V,28Y,30W,31L]-hPYY(4-36)]
Ki [1]: 0.49 nM | Sol6 (Solubility determination): >10.0 mg/mL | Sol7 (Solubility determination): >10.0 mg/mL
